# From patent publication US7767659B2, “Synthesis of naturally occurring ecteinascidins and related compounds” (Pharma Mar, S.A., priority 2002, dated 2010)
# Tests used:
# LoVo = test: cells; conditions: Homo sapiens, LoVo, 48 h; for GI50: read-out: LOVO GI50; for CC50: read-out: LOVO LC50; for IC (TGI): read-out: LOVO TGI
# Summary of the method: (§1)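 Colorimetric SRB read (490 nm) on triplicate wells after 48 h at 37 °C, 5% CO2. Dose range 10 to 10^−8 μg/ml; 5×10^3 cells/well pre-attached 18 h.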
# A-549 = test: cells; conditions: Homo sapiens, A549, 48 h; for GI50: read-out: A549 GI50; for CC50: read-out: A549 LC50; for IC (TGI): read-out: A549 TGI
# Summary of the method: as §1
# HT-29 = test: cells; conditions: Homo sapiens, HT-29, 48 h; for GI50: read-out: HT29 GI50; for CC50: read-out: HT29 LC50; for IC (TGI): read-out: HT29 TGI
# Summary of the method: as §1
# IGROV-ET = test: Inhibition of cells growth by colorimetric assay (SRB); conditions: Homo sapiens, 48 h; for GI50: read-out: IGROV-ET GI50; for CC50: read-out: IGROV-ET LC50; for IC (TGI): read-out: IGROV-ET TGI
# Summary of the method: as §1
# SK-BR-3 = test: as above; conditions: Homo sapiens, SK-BR-3, 48 h; for GI50: read-out: SK-BR3 GI50; for CC50: read-out: SK-BR3 LC50; for IC (TGI): read-out: SK-BR3 TGI
# Summary of the method: as §1
# K-562 = test: as above; conditions: Homo sapiens, K562, 48 h; for GI50: read-out: K562 GI50; for CC50: read-out: K562 LC50; for IC (TGI): read-out: K562 TGI
# Summary of the method: as §1
# DU-145 = test: as above; conditions: Homo sapiens, DU-145, 48 h; for GI50: read-out: DU145 GI50; for CC50: read-out: DU145 LC50; for IC (TGI): read-out: DU145 TGI
# Summary of the method: as §1
# PANC-1 = test: as above; conditions: Homo sapiens, PANC-1, 48 h; for GI50: read-out: PANC-1 GI50; for CC50: read-out: PANC-1 LC50; for IC (TGI): read-out: PANC-1 TGI
# Summary of the method: as §1
# LoVo-Dox = test: as above; conditions: Homo sapiens, 48 h; for GI50: read-out: LOVO-DOX GI50; for CC50: read-out: LOVO-DOX LC50; for IC (TGI): read-out: LOVO-DOX TGI
# Summary of the method: as §1
# HeLa-APL = test: as above; conditions: Homo sapiens, 48 h; for GI50: read-out: HELA-APL GI50; for CC50: read-out: HELA-APL LC50; for IC (TGI): read-out: HELA-APL TGI
# Summary of the method: as §1
# SK-MEL-28 = test: as above; conditions: Homo sapiens, SK-MEL-28, 48 h; for GI50: read-out: MEL-28 GI50; for CC50: read-out: MEL-28 LC50; for IC (TGI): read-out: MEL-28 TGI
# Summary of the method: as §1
# IGROV-1 = test: as above; conditions: Homo sapiens, IGROV-1, 48 h; for GI50: read-out: IGROV GI50; for CC50: read-out: IGROV LC50; for IC (TGI): read-out: IGROV TGI
# Summary of the method: as §1
# LNCaP = test: as above; conditions: Homo sapiens, LNCaP, 48 h; for GI50: read-out: LNCAP GI50; for CC50: read-out: LNCAP LC50; for IC (TGI): read-out: LNCAP TGI
# Summary of the method: as §1
# HeLa = test: as above; conditions: Homo sapiens, HeLa, 48 h; for GI50: read-out: HELA GI50; for CC50: read-out: HELA LC50; for IC (TGI): read-out: HELA TGI
# Summary of the method: as §1
smiles,measurement,setting,value
COc1c(C)cc2c(c1O)[C@H]1N[C@@H](C2)[C@H](O)N2C1[C@@H]1SC[C@]3(NCCc4c3[nH]c3ccccc43)C(=O)OC[C@H]2c2c3c(c(C)c(OC(C)=O)c21)OCO3 (stereo partly drawn) [compound 63],GI50,LoVo,8.63 nM
same,CC50,LoVo,13500 nM
same,IC (TGI),LoVo,54.8 nM
same,GI50,A-549,24 nM
same,CC50,A-549,273 nM
same,IC (TGI),A-549,61.4 nM
same,GI50,HT-29,9.17 nM
same,CC50,HT-29,13500 nM
same,IC (TGI),HT-29,327 nM
same,GI50,IGROV-ET,75.9 nM
same,CC50,IGROV-ET,13300 nM
same,IC (TGI),IGROV-ET,537 nM
same,GI50,SK-BR-3,3.93 nM
same,CC50,SK-BR-3,198 nM
same,IC (TGI),SK-BR-3,8.98 nM
same,GI50,K-562,3.86 nM
same,CC50,K-562,634 nM
same,IC (TGI),K-562,7.92 nM
same,GI50,DU-145,3.48 nM
same,CC50,DU-145,4400 nM
same,IC (TGI),DU-145,7.24 nM
same,GI50,PANC-1,4.6 nM
same,CC50,PANC-1,4270 nM
same,IC (TGI),PANC-1,17.4 nM
same,GI50,LoVo-Dox,398 nM
same,CC50,LoVo-Dox,13500 nM
same,IC (TGI),LoVo-Dox,1090 nM
same,GI50,HeLa-APL,11 nM
same,CC50,HeLa-APL,150 nM
same,IC (TGI),HeLa-APL,39.8 nM
same,GI50,SK-MEL-28,5.64 nM
same,CC50,SK-MEL-28,52.6 nM
same,IC (TGI),SK-MEL-28,17 nM
same,GI50,IGROV-1,5.4 nM
same,CC50,IGROV-1,4.49 nM
same,IC (TGI),IGROV-1,15 nM
same,GI50,LNCaP,2.86 nM
same,CC50,LNCaP,10 nM
same,IC (TGI),LNCaP,5.36 nM
same,GI50,HeLa,3.16 nM
same,CC50,HeLa,12.5 nM
same,IC (TGI),HeLa,6.29 nM
COc1ccc2[nH]c3c(c2c1)CCN[C@]31CS[C@@H]2c3c(OC(C)=O)c(C)c4c(c3[C@H](COC1=O)N1C2[C@@H]2N[C@@H](Cc3cc(C)c(OC)c(O)c32)[C@@H]1O)OCO4 (stereo partly drawn) [compound 64],GI50,LoVo,4.15 nM
same,CC50,LoVo,12500 nM
same,IC (TGI),LoVo,10.3 nM
same,GI50,A-549,5.19 nM
same,CC50,A-549,1120 nM
same,IC (TGI),A-549,36.6 nM
same,GI50,HT-29,3.58 nM
same,CC50,HT-29,13000 nM
same,IC (TGI),HT-29,13.2 nM
same,GI50,IGROV-ET,34.8 nM
same,CC50,IGROV-ET,8300 nM
same,IC (TGI),IGROV-ET,171 nM
same,GI50,SK-BR-3,0.717 nM
same,CC50,SK-BR-3,13000 nM
same,IC (TGI),SK-BR-3,150 nM
same,GI50,K-562,0.86 nM
same,CC50,K-562,812 nM
same,IC (TGI),K-562,4.71 nM
same,GI50,DU-145,2.89 nM
same,CC50,DU-145,13000 nM
same,IC (TGI),DU-145,153 nM
same,GI50,PANC-1,2.46 nM
same,CC50,PANC-1,13000 nM
same,IC (TGI),PANC-1,10.9 nM
same,GI50,LoVo-Dox,320 nM
same,CC50,LoVo-Dox,13000 nM
same,IC (TGI),LoVo-Dox,2760 nM
same,GI50,HeLa-APL,2.39 nM
same,CC50,HeLa-APL,9.63 nM
same,IC (TGI),HeLa-APL,4.8 nM
same,GI50,SK-MEL-28,2.65 nM
same,CC50,SK-MEL-28,20.5 nM
same,IC (TGI),SK-MEL-28,6.24 nM
same,GI50,IGROV-1,1.78 nM
same,CC50,IGROV-1,10.9 nM
same,IC (TGI),IGROV-1,4.41 nM
same,GI50,LNCaP,1.02 nM
same,CC50,LNCaP,6.12 nM
same,IC (TGI),LNCaP,2.67 nM
same,GI50,HeLa,2.4 nM
same,CC50,HeLa,10 nM
same,IC (TGI),HeLa,4.89 nM
